# Assay results as given in patent US6073962A (priority 1994, dated 2000).
# System: mouse
# Settings: in vivo, po
SMILES,Death rate of 30 mg adm.,Death rate of 300 mg adm.,Death rate of 2000 mg adm.,LD50 level
"NN.NN.O=[N+]([O-])[O-].O=[N+]([O-])[O-].[Zn+2] [Ex. 1, Zn.2(N2 H4).2(NO3)]",0/10,0/10,10/10,> 300 mg/kg
"NNC(=O)NN.NNC(=O)NN.NNC(=O)NN.O=[N+]([O-])[O-].O=[N+]([O-])[O-].[Zn+2] [Ex. 25, Zn.3(CDH).2(NO3)]",0/10,3/10,10/10,> 300
